ChEMBL document CHEMBL4813957, “Antitubercular properties of thiazolidin-4-ones - A review” (Eur J Med Chem, 2021)
Converted amounts (≈) assume the structure as drawn.

What was measured:
[1] = test system: Mycobacterium tuberculosis; experiment: Antimycobacterial activity against Mycobacterium tuberculosis H37Rv assessed as bacterial inhibition at 25 ug/ml by microplate alamar blue assay relative to control; assay type: functional
[2] = test system: Mycobacterium tuberculosis; experiment: Antimycobacterial activity against Mycobacterium tuberculosis H37Rv incubated for 5 days by microplate alamar blue assay; assay type: functional; conditions: 120 h, time 5 day
[3] = test system: Mycobacterium tuberculosis; experiment: Antimycobacterial activity against Mycobacterium tuberculosis H37Rv by microplate alamar blue assay; assay type: functional
[4] = test system: Mycobacterium tuberculosis; experiment: Antimycobacterial activity against Mycobacterium tuberculosis H37Rv incubated for 7 days by microplate alamar blue assay; assay type: functional; conditions: 168 h, time 7 day
[5] = test system: Mycobacterium tuberculosis; experiment: Antimycobacterial activity against Mycobacterium tuberculosis H37Ra ATCC 25177 measured on 8th to 12th day by XTT reduction menadione assay; assay type: functional; conditions: time 8-12 day
[6] = test system: Mycobacterium tuberculosis; experiment: Bactericidal activity against Mycobacterium tuberculosis H37Ra ATCC 25177 assessed as ratio of MBC to MIC; assay type: functional
[7] = test system: Mycobacterium tuberculosis; experiment: Antimycobacterial activity against Mycobacterium tuberculosis H37Ra ATCC 25177 incubated for 7 days by microplate alamar blue assay; assay type: functional; conditions: H37Ra ATCC 25177, 168 h, time 7 day
[8] = Selectivity index, ratio of IC50 for African green monkey Vero cells to MIC for antitubercular activity against Mycobacterium tuberculosis H37Ra ATCC 25177; assay type: toxicity
[9] = test system: Mycobacterium tuberculosis; experiment: Antimycobacterial activity against Mycobacterium tuberculosis H37Ra 7131 incubated for 21 days by broth dilution method; assay type: functional; conditions: H37Ra 7131, 504 h, time 21 day
[10] = test system: Mycobacterium tuberculosis; experiment: Antimycobacterial activity against Mycobacterium tuberculosis H37Rv assessed as growth inhibition at 6.25 ug/ml by microplate alamar blue assay relative to control; assay type: functional; conditions: read-out: GI
[11] = test system: Mycobacterium tuberculosis; experiment: Antimycobacterial activity against Mycobacterium tuberculosis H37Rv; assay type: functional
[12] = test system: Mycobacterium tuberculosis; experiment: Antimycobacterial activity against Mycobacterium tuberculosis H37Rv measured after 14 days by test tube dilution technique; assay type: functional; conditions: 336 h, time 14 day
[13] = test system: Mycobacterium tuberculosis; experiment: Antimycobacterial activity against Mycobacterium tuberculosis H37Rv measured after 21 days by test tube dilution technique; assay type: functional; conditions: 504 h, time 21 day
[14] = test system: Mycobacterium tuberculosis; experiment: Antimycobacterial activity against Mycobacterium tuberculosis H37Rv ATCC27294 incubated for 7 days by microplate alamar blue assay; assay type: functional; conditions: H37Rv ATCC 27294, 168 h, time 7 day
[15] = test system: Mycobacterium tuberculosis; experiment: Antimycobacterial activity against Mycobacterium tuberculosis H37Ra; assay type: functional
[16] = test system: Mycolicibacterium smegmatis; experiment: Antimycobacterial activity against Mycobacterium smegmatis ATCC 35797 incubated for 48 hrs by agar dilution method; assay type: functional
[17] = test system: Mycobacterium tuberculosis; experiment: Antimycobacterial activity against Mycobacterium tuberculosis H37Rv assessed as growth inhibition at 50 ug/ml by Lowenstein-Jensen method relative to control; assay type: functional; conditions: read-out: GI
[18] = test system: Mycobacterium tuberculosis; experiment: Antimycobacterial activity against Mycobacterium tuberculosis H37Rv ATCC 27294 incubated for 5 days by microplate alamar blue assay; assay type: functional; conditions: H37Rv ATCC 27294, 120 h, time 5 day

CCCCCCCCN1C(=O)CSC12CCCCC2
inhibition at 25 µg/mL [1]: 96%

O=C(O)c1cn(C2CC2)c2cc(N3CCNCC3)c(F)cc2c1=O [CIPROFLOXACIN]
MIC [2]: 3.12 µg/mL (≈ 9.42 µM) | MIC [3]: 3.12 µg/mL (≈ 9.42 µM) | MIC [4]: 3.12 µg/mL (≈ 9.42 µM)

Cc1cc(NS(=O)(=O)c2ccc(N3C(=O)CSC3c3c(Cl)cccc3Cl)cc2)no1 (configuration not stated)
IC90 [5]: 0.43 µg/mL (≈ 0.888 µM)

Cc1ccc(C2SCC(=O)N2c2n[nH]c(=S)s2)cc1 (configuration not stated)
MIC [4]: 12.5 µg/mL (≈ 40.4 µM)

CCCCCCCCCCCCN1C(=O)C(CC(=O)O)SC12CCCCC2 (configuration not stated)
inhibition at 25 µg/mL [1]: 97%

NC(=S)N/N=C/c1ccc(OC(=O)/C=C2\SC(=O)NC2=O)c(Cl)c1
Ratio [6]: 2 | MIC [7]: 0.031 µg/mL (≈ 0.0806 µM) | selectivity ratio [8]: > 10

Cc1ccc(/N=C2\SC(=O)C(=O)N2NC(=O)c2ccncc2)cc1
MIC [9]: 78 µg/mL (≈ 229 µM)

CCCCCCCCCCCCN1C(=O)C(CC(=O)O)SC12CCN(C(=O)C(N)CCCCN)CC2 (configuration not stated)
inhibition at 25 µg/mL [1]: 96%

C=CC/N=C1\SC(=O)C(=O)N1NC(=O)c1ccncc1
MIC [9]: 19.5 µg/mL (≈ 67.2 µM)

NC(=S)N/N=C/c1ccc(OC(=O)CC2SC(=O)NC2=O)c(Br)c1 (configuration not stated)
Ratio [6]: 2 | MIC [7]: 0.031 µg/mL (≈ 0.0719 µM) | selectivity ratio [8]: > 10

CC1SC(c2ccc(OCc3ccccc3)cc2)N(NC(=O)C(O)(c2ccccc2)c2ccccc2)C1=O (configuration not stated)
inhibition of growth at 6.25 µg/mL [10]: 98%

Cc1ccc(/C=C2\SC(=N)N(NC(=O)c3ccncc3)C2=O)cc1
MIC [9]: 13 µg/mL (≈ 38.4 µM)

O=C1/C(=C/c2ccc([N+](=O)[O-])cc2)SC(c2ccc([N+](=O)[O-])cc2)N1NCCNc1ncc([N+](=O)[O-])s1 (configuration not stated)
MIC [11]: 25 µg/mL (≈ 46 µM)

O=C(COc1cnccn1)N/N=C1/SCC(=O)N1c1ccc(Cl)cc1Cl
MIC [12]: > 100 µg/mL | MIC [13]: > 100 µg/mL

O=C(NN1C(=O)CSC1c1cccc(O)c1)c1cc(O)c(O)c(O)c1 (configuration not stated)
MIC [14]: 0.79 µg/mL (≈ 2.18 µM)

CC(C)(C)N1C(=O)CS/C1=N/NC(=O)COc1cnccn1
MIC [12]: > 100 µg/mL | MIC [13]: > 100 µg/mL

O=C1NC(=S)S/C1=C\c1ccc(/N=N/c2ccccc2)cc1O
MIC [15]: 95 µg/mL (≈ 278 µM)

CCCCCCCCCCCCN1C(=O)C(CC(=O)O)SC12CCN(C(=O)OC(C)(C)C)CC2 (configuration not stated)
inhibition at 25 µg/mL [1]: 96%

O=C(COc1cnccn1)N/N=C1/SCC(=O)N1c1ccc(Cl)cc1[N+](=O)[O-]
MIC [12]: 85 µg/mL (≈ 201 µM) | MIC [13]: 89 µg/mL (≈ 210 µM)

Cc1cc(NS(=O)(=O)c2ccc(N3C(=O)CSC3c3c(F)cccc3F)cc2)no1 (configuration not stated)
IC90 [5]: 0.43 µg/mL (≈ 0.952 µM)

O=C1NC(=S)S/C1=C\c1ccccc1O
MIC [15]: 95 µg/mL (≈ 400 µM)

CCOC(=O)C(C(C)C)N1C(=O)C(C)SC1c1cccc(OC)c1O (configuration not stated)
MIC [15]: 25 µg/mL (≈ 68 µM)

O=C(NN1C(=O)CSC1c1ccccc1O)c1cc(O)c(O)c(O)c1 (configuration not stated)
MIC [14]: 0.79 µg/mL (≈ 2.18 µM)

CCCCCCCCCCCCN1C(=O)C(CC(=O)O)SC12CCN(C(=O)C(N)C(C)CC)CC2 (configuration not stated)
inhibition at 25 µg/mL [1]: 97%

CCCCCCCCCC1SCC(=O)N1NC(=O)c1ccncc1 (configuration not stated)
MIC [16]: 25 µg/mL (≈ 71.5 µM)

COc1ccc(/C=C2\SC(=S)N(Cc3nnc(-c4cccnc4SCc4ccccc4)o3)C2=O)cc1
inhibition of growth at 50 µg/mL [17]: 99%

CN(C)c1ccc(C2SCC(=O)N2NC(=O)c2ccncc2)cc1 (configuration not stated)
MIC [18]: 5 µg/mL (≈ 14.6 µM)

CCCCCCCCCCCCN1C(=O)C(CC(=O)O)SC12CCC(C(C)(C)C)CC2 (configuration not stated)
inhibition at 25 µg/mL [1]: 96%

O=C1CSC(c2ccc(OCc3ccccc3)cc2)N1NC(=O)C(O)(c1ccccc1)c1ccccc1 (configuration not stated)
inhibition of growth at 6.25 µg/mL [10]: 98%

CCCCCCCCCCC1SCC(=O)N1NC(=O)c1ccncc1 (configuration not stated)
MIC [16]: 25 µg/mL (≈ 68.8 µM)

N=C1SC(Br)(C(Br)c2ccccc2)C(=O)N1NC(=O)c1ccncc1 (configuration not stated)
MIC [9]: 13 µg/mL (≈ 26.8 µM)

N=C1SC(Br)(C(Br)c2ccc([N+](=O)[O-])cc2)C(=O)N1NC(=O)c1ccncc1 (configuration not stated)
MIC [9]: 11 µg/mL (≈ 20.8 µM)

CCOc1ccc(N2C(=O)CS/C2=N/NC(=O)COc2cnccn2)cc1
MIC [12]: > 100 µg/mL | MIC [13]: > 100 µg/mL

CC1SC(c2ccc(Cl)cc2)N(NC(=O)C(O)(c2ccccc2)c2ccccc2)C1=O (configuration not stated)
inhibition of growth at 6.25 µg/mL [10]: 99%

CCC1SCC(=O)N1NC(=O)c1ccncc1 (configuration not stated)
MIC [16]: > 100 µg/mL

COc1cccc(C2SCC(=O)N2NC(=O)c2cc(O)c(O)c(O)c2)c1O (configuration not stated)
MIC [14]: 0.79 µg/mL (≈ 2.01 µM)

COc1cc(C2SCC(=O)N2NC(=O)c2ccncc2)ccc1O (configuration not stated)
MIC [18]: 0.31 µg/mL (≈ 0.898 µM)

CCCCCCCCCCCC1SCC(=O)N1NC(=O)c1ccncc1 (configuration not stated)
MIC [16]: 6 µg/mL (≈ 15.9 µM)

CCCCCCCCCCCCN1C(=O)C(CC(=O)O)SC12CCCC2 (configuration not stated)
inhibition at 25 µg/mL [1]: 97%

O=C(COc1cnccn1)N/N=C1/SCC(=O)N1c1ccc(Cl)cc1
MIC [12]: > 100 µg/mL | MIC [13]: > 100 µg/mL

C/C(=N\N1C(=O)CSC1c1ccc(O)cc1)c1oc2ccc(Cl)cc2c1C (configuration not stated)
MIC [11]: 25 µg/mL (≈ 62.4 µM)
